ChEMBL document CHEMBL4308841, “Synthesis, in vitro antiproliferative activity, and kinase inhibitory effects of pyrazole-containing diarylureas and diarylamides” (Eur J Med Chem, 2018)

Legend:
[1] = system: NCI-H460; experiment: Growth inhibition of human NCI-H460 cells assessed as cell growth at 0.01 uM incubated for 48 hrs by sulforhodamine B assay relative to control; type: functional; conditions: NCI-H460, 48 h, read-out: Activity
[2] = system: CAKI-1; experiment: Growth inhibition of human Caki1 cells assessed as cell growth at 100 uM incubated for 48 hrs by sulforhodamine B assay relative to control; type: functional; conditions: CAKI-1, 48 h, read-out: Activity
[3] = system: HCT-15; experiment: Growth inhibition of human HCT15 cells assessed as cell growth at 0.01 uM incubated for 48 hrs by sulforhodamine B assay relative to control; type: functional; conditions: HCT-15, 48 h, read-out: Activity
[4] = system: UO-31; experiment: Growth inhibition of human UO31 cells assessed as cell growth at 0.1 uM incubated for 48 hrs by sulforhodamine B assay relative to control; type: functional; conditions: UO-31, 48 h, read-out: Activity
[5] = system: MCF7; experiment: Growth inhibition of human MCF7 cells assessed as cell growth at 0.1 uM incubated for 48 hrs by sulforhodamine B assay relative to control; type: functional; conditions: MCF7, 48 h, read-out: Activity
[6] = system: SF-268; experiment: Growth inhibition of human SF268 cells assessed as cell growth at 0.01 uM incubated for 48 hrs by sulforhodamine B assay relative to control; type: functional; conditions: SF-268, 48 h, read-out: Activity
[7] = system: NCI-H460; experiment: Growth inhibition of human NCI-H460 cells assessed as cell growth at 100 uM incubated for 48 hrs by sulforhodamine B assay relative to control; type: functional; conditions: NCI-H460, 48 h, read-out: Activity
[8] = system: ACHN; experiment: Growth inhibition of human ACHN cells assessed as cell growth at 0.1 uM incubated for 48 hrs by sulforhodamine B assay relative to control; type: functional; conditions: read-out: Activity
[9] = system: HCT-116; experiment: Growth inhibition of human HCT116 cells assessed as cell growth at 1 uM incubated for 48 hrs by sulforhodamine B assay relative to control; type: functional; conditions: HCT-116, 48 h, read-out: Activity
[10] = system: CCRF-CEM; experiment: Growth inhibition of human CCRF-CEM cells assessed as cell growth at 0.1 uM incubated for 48 hrs by sulforhodamine B assay relative to control; type: functional; conditions: read-out: Activity
[11] = system: OVCAR-8; experiment: Growth inhibition of human OVCAR8 cells incubated for 48 hrs by sulforhodamine B assay; type: functional, cell-based; conditions: OVCAR-8, 48 h
[12] = system: ACHN; experiment: Growth inhibition of human ACHN cells assessed as cell growth at 1 uM incubated for 48 hrs by sulforhodamine B assay relative to control; type: functional; conditions: read-out: Activity
[13] = system: Malme-3M; experiment: Growth inhibition of human MALME-3M cells incubated for 48 hrs by sulforhodamine B assay; type: functional, cell-based
[14] = system: MDA-MB-435; experiment: Growth inhibition of human MDA-MB-435 cells assessed as cell growth at 1 uM incubated for 48 hrs by sulforhodamine B assay relative to control; type: functional; conditions: MDA-MB-435, 48 h, read-out: Activity
[15] = system: SK-OV-3; experiment: Growth inhibition of human SKOV3 cells assessed as cell growth at 100 uM incubated for 48 hrs by sulforhodamine B assay relative to control; type: functional; conditions: SK-OV-3, 48 h, read-out: Activity
[16] = system: 786-0; experiment: Growth inhibition of human 786-0 cells assessed as cell growth at 100 uM incubated for 48 hrs by sulforhodamine B assay relative to control; type: functional; conditions: 786-0, 48 h, read-out: Activity
[17] = system: NCI-H460; experiment: Growth inhibition of human NCI-H460 cells assessed as cell growth at 1 uM incubated for 48 hrs by sulforhodamine B assay relative to control; type: functional; conditions: NCI-H460, 48 h, read-out: Activity
[18] = system: HCC 2998; experiment: Growth inhibition of human HCC2998 cells assessed as cell growth at 0.01 uM incubated for 48 hrs by sulforhodamine B assay relative to control; type: functional; conditions: HCC 2998, 48 h, read-out: Activity
[19] = system: RPMI-8226; experiment: Growth inhibition of human RPMI8226 cells incubated for 48 hrs by sulforhodamine B assay; type: functional, cell-based; conditions: RPMI-8226, 48 h
[20] = system: NCI-H522; experiment: Growth inhibition of human NCI-H522 cells assessed as cell growth at 1 uM incubated for 48 hrs by sulforhodamine B assay relative to control; type: functional; conditions: NCI-H522, 48 h, read-out: Activity
[21] = system: UO-31; experiment: Growth inhibition of human UO31 cells assessed as cell growth at 100 uM incubated for 48 hrs by sulforhodamine B assay relative to control; type: functional; conditions: UO-31, 48 h, read-out: Activity
[22] = system: NCI-H322M; experiment: Growth inhibition of human NCI-H322M cells incubated for 48 hrs by sulforhodamine B assay; type: functional, cell-based
[23] = system: MDA-MB-231; experiment: Growth inhibition of human MDA-MB-231 cells assessed as cell growth at 1 uM incubated for 48 hrs by sulforhodamine B assay relative to control; type: functional; conditions: MDA-MB-231, 48 h, read-out: Activity
[24] = system: CAKI-1; experiment: Growth inhibition of human Caki1 cells incubated for 48 hrs by sulforhodamine B assay; type: functional, cell-based; conditions: CAKI-1, 48 h
[25] = system: SF-295; experiment: Growth inhibition of human SF295 cells incubated for 48 hrs by sulforhodamine B assay; type: functional, cell-based; conditions: SF-295, 48 h
[26] = system: NCI-H322M; experiment: Growth inhibition of human NCI-H322M cells assessed as cell growth at 1 uM incubated for 48 hrs by sulforhodamine B assay relative to control; type: functional; conditions: read-out: Activity
[27] = system: MCF7; experiment: Growth inhibition of human MCF7 cells assessed as cell growth at 100 uM incubated for 48 hrs by sulforhodamine B assay relative to control; type: functional; conditions: MCF7, 48 h, read-out: Activity
[28] = system: RPMI-8226; experiment: Growth inhibition of human RPMI8226 cells assessed as cell growth at 0.01 uM incubated for 48 hrs by sulforhodamine B assay relative to control; type: functional; conditions: RPMI-8226, 48 h, read-out: Activity
[29] = system: HOP-62; experiment: Growth inhibition of human HOP62 cells assessed as cell growth at 0.1 uM incubated for 48 hrs by sulforhodamine B assay relative to control; type: functional; conditions: HOP-62, 48 h, read-out: Activity
[30] = read-out: LC50 (the source's name)
[31] = read-out: pLC50 (the source's name) (converted)

Structure (SMILES): COc1cc(Cl)cc(-c2nn(-c3cccc(NC(=O)Nc4ccc(Cl)c(C(F)(F)F)c4)c3)cc2-c2ccncc2)c1
- growth at 0.01 µM [1]: 100%
- growth at 100 µM [2]: -40%
- growth at 0.01 µM [3]: 92%
- growth at 0.1 µM [4]: 55%
- growth at 0.1 µM [5]: 93%
- growth at 0.01 µM [6]: 95%
- growth at 100 µM [7]: -62%
- growth at 0.1 µM [8]: 57%
- growth at 1 µM [9]: 38%
- growth at 0.1 µM [10]: 97%
- GI50 ([11]; read-out: GI50): 0.739 µM
- CC50 [11, 30]: > 100 µM
- TGI ([11]; read-out: TGI): 59.3 µM
- GI50 ([11]; read-out: pGI50 (converted)): 0.741 µM
- CC50 [11, 31]: > 100 µM
- TGI ([11]; read-out: pTGI (converted)): 7.08 µM
- growth at 1 µM [12]: 45%
- GI50 ([13]; read-out: GI50): 1.21 µM
- CC50 [13, 30]: > 100 µM
- TGI ([13]; read-out: TGI): 85 µM
- GI50 ([13]; read-out: pGI50 (converted)): 1.7 µM
- CC50 [13, 31]: > 100 µM
- TGI ([13]; read-out: pTGI (converted)): 3.16 µM
- growth at 1 µM [14]: 81%
- growth at 100 µM [15]: -39%
- growth at 100 µM [16]: -81%
- growth at 1 µM [17]: 43%
- growth at 0.01 µM [18]: 95%
- IC50 [19]: 0.4 µM
- GI50 ([19]; read-out: GI50): 0.402 µM
- CC50 [19, 30]: > 100 µM
- TGI ([19]; read-out: TGI): 20.7 µM
- GI50 ([19]; read-out: pGI50 (converted)): 0.398 µM
- CC50 [19, 31]: > 100 µM
- TGI ([19]; read-out: pTGI (converted)): 2.09 µM
- growth at 1 µM [20]: 34%
- growth at 100 µM [21]: -50%
- GI50 ([22]; read-out: GI50): 3.38 µM
- CC50 [22, 30]: > 100 µM
- TGI ([22]; read-out: TGI): 24 µM
- GI50 ([22]; read-out: pGI50 (converted)): 3.39 µM
- CC50 [22, 31]: > 100 µM
- TGI ([22]; read-out: pTGI (converted)): 25.1 µM
- growth at 1 µM [23]: 69%
- GI50 ([24]; read-out: GI50): 0.615 µM
- CC50 [24, 30]: > 100 µM
- TGI ([24]; read-out: TGI): 94.3 µM
- GI50 ([24]; read-out: pGI50 (converted)): 0.813 µM
- CC50 [24, 31]: > 100 µM
- TGI ([24]; read-out: pTGI (converted)): 10.2 µM
- GI50 ([25]; read-out: GI50): 0.455 µM
- CC50 [25, 30]: 5.15 µM
- TGI ([25]; read-out: TGI): 20 µM
- GI50 ([25]; read-out: pGI50 (converted)): 0.468 µM
- CC50 [25, 31]: 6.17 µM
- TGI ([25]; read-out: pTGI (converted)): 2 µM
- growth at 1 µM [26]: 89%
- growth at 100 µM [27]: -8%
- growth at 0.01 µM [28]: 97%
- growth at 0.1 µM [29]: 104%
